Measurements: PMC9118553, “In Vivo Bioconcentration of 10 Anionic Surfactants in Rainbow Trout Explained by In Vitro Data on Partitioning and S9 Clearance” (Environmental Science & Technology, 2022)
“And” between values parts separate entries of the source, which are not always exact repeats. Equal values may be shown once. Read-outs that look alike come from different tables or passages of the source.

Assays:
[1] = Baseline screening BCF (0.0125 DMLW, equilibrium partitioning, no biotransformation); details: for Log baseline BCF: determined as 0.0125 DMLW
Source text: Recently, the concept of a baseline screening BCF was introduced for surfactants, based on equilibrium partitioning assuming no biotransformation.[19] The baseline screening BCF for the study chemicals exceeded the measured BCF by 1–2.5 orders of magnitude (Table S16), providing further evidence that biotransformation is an important factor influencing the elimination—and thereby the BCF—of the anionic surfactants studied here in rainbow trout. The deviation of PFOA and PFOS from the regression between BCF and DMLW (Figure 1, upper panel) is attributable to them not being biotransformed.
Table S16: Comparison of the BCF (determined with the measured concentrations in water) and the baseline screening BCF (determined as 0.0125 DMLWa)
CHEMICAL Log BCF Log baseline BCF Log difference […]
a Droge, S. T. J.; Scherpenisse, P.; Arnot, J. A.; Armitage, J. M.; McLachlan, M. S.; Nichols, J.; von der Ohe, P.; Bonnell, M.; Hodges, G. Screening the baseline fish bioconcentration potential of various types of surfactants using phospholipid binding data. Environ. Sci.: Processes Impacts

[2] = test system: rainbow trout; assay: In vivo bioconcentration experiment with a mixture of anionic surfactants, flow-through aquaria, 10 °C, pH 7.8; details: for Log BCF: determined with measured concentrations in water; for Concentration in fish: individual fish; for diffusion coefficient (D) in the epithelial membrane of the gills: in vivo; for BCF (kinetic): kinetic BCF from measured concentrations in water;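 for Uptake rate constant kU: L kg-1 h-1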
Method: The bioconcentration of a mixture of 10 anionic surfactants was measured in rainbow trout in water at pH 7.8. […] The experiment was conducted in flow-through aquaria with juvenile rainbow trout at 10 °C. Ethical approval for the experiments was obtained from Stockholms […] (decision 9967-2017). The fish, fish housing, fish handling, and procedure for introducing the mixture of […] chemicals were very similar to our previous study with cationic surfactants;[5] details are provided in Text S1. The experiment consisted of a 4-day exposure phase and a 7-day depuration phase. […] Water samples were collected and fish were sacrificed according to the schedule in Table S4. The water samples were collected just prior to the daily removal of feces from the aquarium. Triplicate samples were taken at each time point. […] The water/methanol mixture was analyzed using liquid chromatography-mass spectrometry (LC-MS)/MS as described below for fish. At each fish sampling, five fish were sacrificed. Following stunning and severance of the spinal cord, the whole fish were placed in a polyethylene bag, weighed, and immediately frozen at -20 °C. The weight of the individual fish at sacrifice was 24.0 ± 5.6 g. Three of the five fish from each time point were prioritized for analysis based on proximity to the median fish weight. Each fish was […] homogenized with an Ultra-turrax dispersing device. […] This mixture was homogenized in a bullet blender for 5 min and then placed in an ultrasound bath at 45 °C for 15 min. Following centrifugation for 15 min@3200 RCF, the supernatant was decanted and the extraction was repeated. The extracts were combined. For instrumental analysis, 5 μL of the fish extract or 60 μL of the water/methanol mixture (water samples) was separated on an Acquity UPLC BEH C18 column fitted with a BEH C18 pre-column and analyzed on a TSQ Quantiva triple quadrupole mass spectrometer. The mobile phase was methanol (10 mM ammonium acetate) and Milli-Q-filtered water (10 mM ammonium acetate) (see Table S5 for the liquid chromatography program). To avoid detergent blank peaks originating from cleaning mobile phase bottles, the methanol was prepared directly in the solvent bottle as delivered and Milli-Q was tapped into an empty methanol bottle. Furthermore, a guard column was fitted between the mobile phase and the autosampler to prevent background contamination from disturbing the analysis. All analytes were quantified against the BEHP internal standard, as it gave better reproducibility. […] The central goal of the analysis was to estimate kU and kT as well as the BCF (=kU/kT) from measurements of surfactant concentration in fish and water samples collected at different time points of the experiment. For the fish, only those time points were included for which CF(measured) was above the limit of quantitation (LOQ) in all three fish (data below the LOQ will have a positive bias; including them would result in a negative bias in kT). In this analysis, there exist two sources of uncertainty: first, uncertainty in the actual concentration in water CW at the time of sample collection and second, variability in the concentration in fish around the (expected) surfactant concentrations in fish assumed to follow model (1). We therefore set up a model in which we considered uncertainty in both water and fish measurements simultaneously by assuming a parametric model for the surfactant concentration in the water over time (either linear or quadratic) and accounted for the uncertainty in the corresponding parameters of the water model during the estimation of kU and kT. This was done in a joint Bayesian model that we estimated via Hamiltonian Monte Carlo. […]

[3] = from measured concentrations in water, Bayesian estimate, 95% credible interval in brackets
[4] = 95% credible interval in brackets
[5] = measured concentrations in water, simpler estimation method (Text S3), 95% confidence intervals in brackets
[6] = determined using nominal concentrations in water

SMILES	Log difference (baseline BCF vs BCF) [1]	Log baseline BCF [1]	Log BCF [2]	Concentration in fish ([2]; elimination phase, 97 h)	Concentration in fish ([2]; elimination phase, 98 h)	Concentration in fish ([2]; elimination phase, 100 h)	Concentration in fish ([2]; elimination phase, 103 h)	Concentration in fish ([2]; elimination phase, 120 h)	Concentration in fish ([2]; elimination phase, 128 h)	Concentration in fish ([2]; elimination phase, 144 h)	Concentration in fish ([2]; elimination phase, 168 h)	Concentration in fish ([2]; elimination phase, 192 h)	Concentration in fish ([2]; elimination phase, 264 h)	Concentration in fish ([2]; exposure phase, 1 h)	Concentration in fish ([2]; exposure phase, 2 h)	Concentration in fish ([2]; exposure phase, 3 h)	Concentration in fish ([2]; exposure phase, 4 h)	Concentration in fish ([2]; exposure phase, 6 h)	Concentration in fish ([2]; exposure phase, 24 h)	Concentration in fish ([2]; exposure phase, 48 h)	also measured
CCCCCCCCCCCCCCCCS(=O)(=O)O [C16SO3, hexadecylsulfonate]	1.15 L kg-1 ww	4.29 L kg-1 ww	3.14 L kg-1 ww	4206 ng g-1 ww and 4275 ng g-1 ww and 4280 ng g-1 ww	3644 ng g-1 ww and 3202 ng g-1 ww and 3035 ng g-1 ww	4355 ng g-1 ww and 3469 ng g-1 ww and 3603 ng g-1 ww	3251 ng g-1 ww and 4192 ng g-1 ww and 3692 ng g-1 ww	2630 ng g-1 ww and 4641 ng g-1 ww and 2805 ng g-1 ww	3635 ng g-1 ww and 2712 ng g-1 ww and 2831 ng g-1 ww	2859 ng g-1 ww and 2503 ng g-1 ww and 3401 ng g-1 ww	2804 ng g-1 ww and 2276 ng g-1 ww and 2244 ng g-1 ww	1669 ng g-1 ww and 1852 ng g-1 ww and 2440 ng g-1 ww	1420 ng g-1 ww and 2150 ng g-1 ww and 967 ng g-1 ww	440 ng g-1 ww and 319 ng g-1 ww and 614 ng g-1 ww	300 ng g-1 ww and 304 ng g-1 ww and 147 ng g-1 ww	347 ng g-1 ww and 392 ng g-1 ww and 451 ng g-1 ww	510 ng g-1 ww and 1310 ng g-1 ww and 2283 ng g-1 ww	557 ng g-1 ww and 678 ng g-1 ww and 649 ng g-1 ww	2045 ng g-1 ww and 1698 ng g-1 ww and 1479 ng g-1 ww	3941 ng g-1 ww and 3596 ng g-1 ww and 1879 ng g-1 ww	Uptake rate constant kU [2]: 6.3 L kg^–1 h^–1; Concentration in fish ([2]; exposure phase, 72 h): 1532 ng g-1 ww and 3782 ng g-1 ww and 3167 ng g-1 ww; Concentration in fish ([2]; exposure phase, 96 h): 3775 ng g-1 ww and 5248 ng g-1 ww and 3695 ng g-1 ww; Elimination rate constant kT [2, 3]: 0.0047 (0.0026–0.0062) h^–1; Uptake rate constant kU [2, 3]: 6.3 (5.3–7.4) L kg^–1 ww h^–1; diffusion coefficient (D) in the epithelial membrane of the gills [2]: 1.6 × 10^–8 m h^–1; BCF (kinetic) [2, 4]: 1370 (1070–2200) L kg^–1 ww; BCF [2, 5]: 1480 (14) L kg-1 ww; Elimination rate constant kT [2, 5]: 0.0073 (10) h-1; Uptake rate constant kU [2, 5]: 10.8 (10) L kg-1 ww h-1
CCCCCCCCCCCCCS(=O)(=O)O [C13SO3, tridecylsulfonate]	1.90 L kg-1 ww	2.56 L kg-1 ww	0.65 L kg-1 ww	15.7 ng g-1 ww and 14.6 ng g-1 ww and 19.2 ng g-1 ww	14.6 ng g-1 ww and 12.4 ng g-1 ww and 14.8 ng g-1 ww	33 ng g-1 ww and 10.3 ng g-1 ww and 12.1 ng g-1 ww	10.0 ng g-1 ww and 23 ng g-1 ww and 11.1 ng g-1 ww	6.4 ng g-1 ww and 4.3 ng g-1 ww and 2.9 ng g-1 ww	2.8 ng g-1 ww and 2.3 ng g-1 ww and 4.9 ng g-1 ww	1.63 ng g-1 ww and 1.18 ng g-1 ww and 1.59 ng g-1 ww	0.83 ng g-1 ww and 1.89 ng g-1 ww and 0.64 ng g-1 ww	0.40 ng g-1 ww and 0.33 ng g-1 ww and 0.60 ng g-1 ww	0.30 ng g-1 ww and 0.13 ng g-1 ww and 0.02 ng g-1 ww	15.3 ng g-1 ww and 2.5 ng g-1 ww and 35 ng g-1 ww	3.2 ng g-1 ww and 3.0 ng g-1 ww and 2.3 ng g-1 ww	4.7 ng g-1 ww and 5.8 ng g-1 ww and 4.5 ng g-1 ww	8.1 ng g-1 ww and 54 ng g-1 ww and 202 ng g-1 ww	10.5 ng g-1 ww and 10.3 ng g-1 ww and 8.5 ng g-1 ww	24 ng g-1 ww and 21 ng g-1 ww and 17.0 ng g-1 ww	19.4 ng g-1 ww and 20 ng g-1 ww and 17.1 ng g-1 ww	BCF [2, 6]: 3.9 L kg-1 ww; Elimination rate constant kT [2, 6]: 0.065 h⁻¹; Uptake rate constant kU [2, 6]: 0.25 L/kg/h; Concentration in fish ([2]; exposure phase, 72 h): 30 ng g-1 ww and 16.7 ng g-1 ww and 15.0 ng g-1 ww; Concentration in fish ([2]; exposure phase, 96 h): 22 ng g-1 ww and 19.7 ng g-1 ww and 28 ng g-1 ww; Elimination rate constant kT [2, 3]: 0.057 (0.052–0.062) h^–1; Uptake rate constant kU [2, 3]: 0.25 (0.22–0.29) L kg^–1 ww h^–1; diffusion coefficient (D) in the epithelial membrane of the gills [2]: 3.5 × 10^–8 m h^–1; BCF (kinetic) [2, 4]: 4.5 (4.1–5.0) L kg^–1 ww; BCF [2, 5]: 4.3 (12) L kg-1 ww; Elimination rate constant kT [2, 5]: 0.057 (7) h-1
CCCCCCCCCCCCCOS(=O)(=O)O [C13SO4, tridecylsulfate]	1.78 L kg-1 ww	3.31 L kg-1 ww	1.53 L kg-1 ww	99 ng g-1 ww and 120 ng g-1 ww and 148 ng g-1 ww	111 ng g-1 ww and 104 ng g-1 ww and 80 ng g-1 ww	104 ng g-1 ww and 78 ng g-1 ww and 80 ng g-1 ww	58 ng g-1 ww and 80 ng g-1 ww and 82 ng g-1 ww	32 ng g-1 ww and 40 ng g-1 ww and 25 ng g-1 ww	21 ng g-1 ww (2×) and 29 ng g-1 ww	14.4 ng g-1 ww and 11.1 ng g-1 ww and 13.5 ng g-1 ww	12.9 ng g-1 ww and 6.4 ng g-1 ww and 7.3 ng g-1 ww	4.0 ng g-1 ww and 4.7 ng g-1 ww and 3.9 ng g-1 ww	3.8 ng g-1 ww and 2.1 ng g-1 ww and 1.7 ng g-1 ww	34 ng g-1 ww and 28 ng g-1 ww and 54 ng g-1 ww	40 ng g-1 ww and 42 ng g-1 ww and 27 ng g-1 ww	61 ng g-1 ww and 67 ng g-1 ww and 60 ng g-1 ww	88 ng g-1 ww and 108 ng g-1 ww and 187 ng g-1 ww	139 ng g-1 ww and 132 ng g-1 ww and 97 ng g-1 ww	255 ng g-1 ww (2×) and 188 ng g-1 ww	140 ng g-1 ww and 234 ng g-1 ww and 190 ng g-1 ww	BCF [2, 6]: 31 L kg-1 ww; Elimination rate constant kT [2, 6]: 0.074 h⁻¹; Uptake rate constant kU [2, 6]: 2.29 L/kg/h; Concentration in fish ([2]; exposure phase, 72 h): 201 ng g-1 ww and 154 ng g-1 ww and 128 ng g-1 ww; Concentration in fish ([2]; exposure phase, 96 h): 175 ng g-1 ww and 150 ng g-1 ww and 275 ng g-1 ww; Elimination rate constant kT [2, 3]: 0.048 (0.043–0.053) h^–1; Uptake rate constant kU [2, 3]: 1.62 (1.38–1.91) L kg^–1 ww h^–1; diffusion coefficient (D) in the epithelial membrane of the gills [2]: 3.9 × 10^–8 m h^–1; BCF (kinetic) [2, 4]: 34 (29–40) L kg^–1 ww; BCF [2, 5]: 31 (16) L kg-1 ww; Elimination rate constant kT [2, 5]: 0.053 (7) h-1; Uptake rate constant kU [2, 5]: 1.64 (15) L kg-1 ww h-1; BCF ([2]; own values): 34 L kg^–1
